Assay results taken from patent US20160257928A1, “Method for producing pluripotent stem cell having improved chimera forming ability from primed pluripotent stem cell, and composition and combination therefor” (The University of Tokyo, priority 2015, published 2016).

Tests used:
EB3DR-EpiSC-TRE-Cdh1 = test: CD31 expression by FACS in E-cadherin induced EpiSC; assay type: cell-based, mouse; settings: 7 days, with forced expression of E-cadherin (Dox(+), 10 μg/mL doxycycline)
Procedure: The EB3DR-EpiSC-TRE-Cdh1 was cultured for 7 days in the presence of a basic fibroblast growth factor (bFGF) or LIF in a usual medium (Dox(−)) or a medium supplemented with 10 μg/mL of doxycycline (Dox(+)), and the resultant cell was dissociated with a trypsin/EDTA solution and stained with an APC labeled anti-mouse CD31 antibody to be analyzed by using the FACS.

EB3DR-EpiSC [1] = test: Naive pluripotent stem cell-like colony formation of EpiSC; assay type: cell-based, mouse
Procedure: The EB3DR-EpiSC was cultured in N2B27 medium (Ying et al., Nature (2008), 435, 519-523) supplemented with 1,000 U/mL of mouse LIF and 1 μM of PD0325901 (manufactured by Axon, Groeningen, The Netherlands). To the resultant, 5 nM of IWP-2 (manufactured by Wako Pure Chemical Industries, Ltd., Osaka, Japan) was added, or CHIR known as an inhibitor of GSK3β or the same amount of DMSO was added instead of IWP-2, so as to check the influence on the EB3DR-EpiSC.
(§1) The naive-like colony formation and the chimera formation were checked in the same manner as described above except that XAV939 (manufactured by Sigma-Aldrich, S. Louis, Mo., USA) was used as the Wnt/β catenin signal inhibitor instead of IWP-2.

STAT3 signal = test: Western blotting of phosphorylated STAT3; assay type: cell-based, mouse; settings: EB3DR-EpiSC, 2nd day after stimulation
Source text: Besides, the EB3DR-EpiSC was stimulated with LIF, the resultant cell was collected on the 2nd day after stimulation, and the activation of a STAT3 signal was checked by the Western blotting. The activation of a STAT3 signal was checked on the basis of the presence of phosphorylated STAT3. The phosphorylated STAT3 was detected by using, as a primary antibody, an anti-P-STAT3 antibody (#9145, 1:2000, manufactured by Cell Signaling Technology Inc.) […] specifically recognizing phosphorylated STAT3.

EB3DR-EpiSC [2] = test: Chimera forming ability after injection into mouse blastocyst; assay type: in vivo; settings: EpiSC treated with LIF and the inhibitor, about 10 cells injected per embryo
Procedure: Furthermore, the chimera forming ability of the EB3DR-EpiSC treated with LIF and IWP-2 was checked. Specifically, the embryo of a BDF1 (C57BL6/N; DBA1 F1) mouse was cultured in Medium 2 (manufactured by Millipore Corporation) to the eight-cell stage or morula stage. The resultant embryo was transferred to KSOM medium (manufactured by Millipore Corporation) and cultured for 24 hours to be developed to the blastocyst stage. For the injection into an embryo, the cell was dissociated into a single cell by a trypsin treatment, and the resultant was suspended in a medium. A zona pellucida was perforated under a microscope by using a piezoelectric micromanipulator, and a chimeric embryo was produced by injecting approximately 10 cells into a space below the zona pellucida in each embryo. After the injection, the embryo was cultured in KSOM medium until a blastomere was obtained, and then, the resultant was transplanted into the uterus of a pseudopregnant ICR recipient female mouse. The chimera formation was checked on the basis of the color of a fur. A cell derived from BDF1×C57BL/6 grows a black fur, and a cell derived from 129/Ola grows a brown (agouti-colored) fur. […]

EB3DR-EpiSC [3] = test: CD31 (PECAM-1) expression by FACS; assay type: cell-based, mouse; settings: for expression of CD31 (CD31 positive cell frequency): in the presence of LIF
Procedure: Next, the expression of CD31 (PECAM-1) in these cells was analyzed. The expression level of CD31 was checked by the FACS by using an APC labeled rat anti-mouse CD31 antibody (manufactured by eBioscience, 17-0311). […] When a colony of the CD31 expressing cell was cloned and subcultured, a mouse ES cell-like morphology was obtained (see FIG. 4, (G)), and such a cell could be subcultured continuously for a long period of time similarly to a mouse ES cell. Since the cell was derived from the EB3DR-EpiSC, DsRed was expressed therein (see FIG. 4, (H)).
as §1

Wnt/β catenin signal = test: Western blotting of β catenin in cytoplasmic and nuclear fractions; assay type: cell-based, mouse; settings: EB3DR-EpiSC; for inhibition of Wnt/β catenin signal: Western blotting (FIG. 4 (A))
Procedure: First, in order to confirm the effect of IWP-2 on a Wnt/β catenin signal inhibition, the amount of protein in β catenin was checked by Western blotting. The EB3DR-EpiSC was cultured under the aforementioned culturing conditions, IWP-2 (at a final concentration of 5 nM) was added thereto, and the resultant was cultured for another 2 days. As a control, the same amount of DMSO was added instead of IWP-2. Next, Nuclear/Cytosol Fractionation Kit (Bio Vision, manufactured by Mountain View, Calif.) was used in accordance with the manufacturer's manual to separate a cytoplasmic fraction and a nuclear fraction. Each of these fractions thus obtained was dissolved in Laemmli Sample Buffer (Bio-Rad, manufactured by Hercules, Calif.) to perform SDS-PAGE. A protein separated by the SDS-PAGE was blotted on a PVDF transfer membrane (manufactured by Millipore Corporation) to perform a primary antibody reaction.
As a primary antibody, an anti-β catenin antibody (#9562, 1:1000), an anti-(β-actin antibody (#3770, 1:1000), or an anti-histone H3 antibody (#4499, 1:2000) purchased from Cell Signaling Technology Inc. was used. As a secondary antibody, for the anti-β catenin antibody or the anti-histone H3 antibody, an anti-rabbit IgG Horseradish peroxidase-conjugated antibody (NA934V, 1:100, manufactured by GE Healthcare UK, Little Chalfont, UK) was used for the reaction, and for the anti-β-actin antibody, an anti-mouse IgG Horseradish peroxidase-conjugated antibody (NA931V, 1:1000, manufactured by GE Healthcare UK, Little Chalfont, UK) was used for the reaction, and then a band bonded to the secondary antibody was detected by SuperSignal West Pico Chemiluminescent Substrate (manufactured by Thermo Fisher Scientific Inc., Rockford, Ill.). As a result, it was confirmed that the amount of β catenin was reduced in the nuclear fraction by IWP-2 and that a Wnt/β catenin signal was thus inhibited (see FIG. 4, (A)).

| Compound | CD31 (Pecam1) positive cell proportion (EB3DR-EpiSC-TRE-Cdh1) | appearance of a colony corresponding to a naive pluripotent stem cell-like morphology, time after culture (EB3DR-EpiSC [1]; N2B27 medium with 1,000 U/mL mouse LIF and 1 μM PD0325901, 5 nM IWP-2) [days] | appearance frequency of a colony characteristic to the naive pluripotent stem cell on the 14th day after culture (EB3DR-EpiSC [1]; N2B27 medium with LIF and PD0325901, 5 nM IWP-2, vs CHIR or DMSO) | activation of a STAT3 signal (presence of phosphorylated STAT3) (STAT3 signal) | chimera formation (production of a chimeric animal) (EB3DR-EpiSC [2]) | expression of CD31 (CD31 positive cell frequency) (EB3DR-EpiSC [3]) | inhibition of Wnt/β catenin signal (Wnt/β catenin signal) | amount of β catenin in the nuclear fraction (Wnt/β catenin signal; final concentration 5 nM, 2 days, vs DMSO) | naive-like colony formation on the 7th day after treatment (EB3DR-EpiSC [1]; LIF used in combination) | proportion of the CD31 (PECAM-1) positive cell on the 7th day after treatment (EB3DR-EpiSC [3]; LIF used in combination) |
| --- | --- | --- | --- | --- | --- | --- | --- | --- | --- | --- |
| bFGF: basic fibroblast growth factor, culture medium supplement | the level was merely restrictive | – | – | – | – | – | – | – | – | – |
| Cc1ccc2nc(NC(=O)CSc3nc4c(c(=O)n3-c3ccccc3)SCC4)sc2c1 [IWP-2, N-(6-methyl-2-benzothiazolyl)-2-[(3,4,6,7-tetrahydro-4-oxo-3-phenylthieno[3,2-d]pyrimidine-2-yl)thio]-acetamide] | – | ≤ 7 | significantly increased | also observed | confirmed, based on the fur color, as a chimeric mouse | expressed at a high frequency in a short period of time | inhibited | reduced | – | – |
| O=c1[nH]c(-c2ccc(C(F)(F)F)cc2)nc2c1CSCC2 [XAV939, 3,5,7,8-tetrahydro-2-[4-(trifluoromethyl)phenyl]-4H-thiopyrano[4,3-d]pyrimidine-4-one] | – | – | – | also observed | a chimeric animal was produced | observed at a high frequency | work as an inhibitor of a Wnt/β catenin signal | – | formed a naive-like colony | remarkably increased |
